Converted amounts (≈) assume the structure as drawn.
Experiments:
Assay type in all cases: functional
[1] = tested on: Aspergillus niger; test: Antifungal activity against Aspergillus niger at 100 ug/ml after 72 hrs by agar well diffusion method; details: read-out: DIZ
[2] = tested on: Rhizoctonia solani; test: Antifungal activity against Rhizoctonia solani at 300 ug/ml after 72 hrs by agar well diffusion method; details: read-out: DIZ
[3] = tested on: Aspergillus flavus; test: Antifungal activity against Aspergillus flavus at 200 ug/ml after 72 hrs by agar well diffusion method; details: read-out: DIZ
[4] = tested on: Escherichia coli; test: Antibacterial activity against Escherichia coli ATCC 8739 at 300 ug/ml after 24 hrs by agar well diffusion method; details: ATCC 8739, 24 h, read-out: DIZ
[5] = tested on: Klebsiella pneumoniae; test: Antibacterial activity against Klebsiella pneumoniae at 50 ug/ml after 24 hrs by agar well diffusion method; details: read-out: DIZ
[6] = tested on: Klebsiella pneumoniae; test: Antibacterial activity against Klebsiella pneumoniae at 500 ug/ml after 24 hrs by agar well diffusion method; details: read-out: DIZ
[7] = tested on: Fusarium oxysporum; test: Antifungal activity against Fusarium oxysporum at 50 ug/ml after 72 hrs by agar well diffusion method; details: read-out: DIZ
[8] = tested on: Staphylococcus aureus; test: Antibacterial activity against Staphylococcus aureus ATCC 6538 at 50 ug/ml after 24 hrs by agar well diffusion method; details: ATCC 6538, 24 h, read-out: DIZ
[9] = tested on: Staphylococcus aureus; test: Antibacterial activity against Staphylococcus aureus ATCC 6538 at 200 ug/ml after 24 hrs by agar well diffusion method; details: ATCC 6538, 24 h, read-out: DIZ
[10] = tested on: Escherichia coli; test: Antibacterial activity against Escherichia coli ATCC 8739 at 200 ug/ml after 24 hrs by agar well diffusion method; details: ATCC 8739, 24 h, read-out: DIZ
[11] = tested on: Fusarium oxysporum; test: Antifungal activity against Fusarium oxysporum at 300 ug/ml after 72 hrs by agar well diffusion method; details: read-out: DIZ
[12] = tested on: Staphylococcus aureus; test: Antibacterial activity against Staphylococcus aureus ATCC 6538 after 24 hrs by agar well diffusion method; details: ATCC 6538, 24 h
[13] = tested on: Rhizoctonia solani; test: Antifungal activity against Rhizoctonia solani at 500 ug/ml after 72 hrs by agar well diffusion method; details: read-out: DIZ
[14] = tested on: Klebsiella pneumoniae; test: Antibacterial activity against Klebsiella pneumoniae at 200 ug/ml after 24 hrs by agar well diffusion method; details: read-out: DIZ
[15] = tested on: Bacillus subtilis; test: Antibacterial activity against Bacillus subtilis at 300 ug/ml after 24 hrs by agar well diffusion method; details: read-out: DIZ
[16] = tested on: Escherichia coli; test: Antibacterial activity against Escherichia coli ATCC 8739 at 100 ug/ml after 24 hrs by agar well diffusion method; details: ATCC 8739, 24 h, read-out: DIZ
[17] = tested on: Aspergillus flavus; test: Antifungal activity against Aspergillus flavus at 300 ug/ml after 72 hrs by agar well diffusion method; details: read-out: DIZ
[18] = tested on: Klebsiella pneumoniae; test: Antibacterial activity against Klebsiella pneumoniae at 100 ug/ml after 24 hrs by agar well diffusion method; details: read-out: DIZ
[19] = tested on: Aspergillus flavus; test: Antifungal activity against Aspergillus flavus at 50 ug/ml after 72 hrs by agar well diffusion method; details: read-out: DIZ
[20] = tested on: Rhizoctonia solani; test: Antifungal activity against Rhizoctonia solani at 200 ug/ml after 72 hrs by agar well diffusion method; details: read-out: DIZ
[21] = tested on: Bacillus subtilis; test: Antibacterial activity against Bacillus subtilis after 24 hrs by agar well diffusion method
[22] = tested on: Aspergillus flavus; test: Antifungal activity against Aspergillus flavus at 100 ug/ml after 72 hrs by agar well diffusion method; details: read-out: DIZ
[23] = tested on: Fusarium oxysporum; test: Antifungal activity against Fusarium oxysporum after 72 hrs by agar well diffusion method
[24] = tested on: Klebsiella pneumoniae; test: Antibacterial activity against Klebsiella pneumoniae after 24 hrs by agar well diffusion method
[25] = tested on: Fusarium oxysporum; test: Antifungal activity against Fusarium oxysporum at 200 ug/ml after 72 hrs by agar well diffusion method; details: read-out: DIZ
[26] = tested on: Escherichia coli; test: Antibacterial activity against Escherichia coli ATCC 8739 after 24 hrs by agar well diffusion method; details: ATCC 8739, 24 h
[27] = tested on: Aspergillus niger; test: Antifungal activity against Aspergillus niger at 500 ug/ml after 72 hrs by agar well diffusion method; details: read-out: DIZ
[28] = tested on: Escherichia coli; test: Antibacterial activity against Escherichia coli ATCC 8739 at 50 ug/ml after 24 hrs by agar well diffusion method; details: ATCC 8739, 24 h, read-out: DIZ
[29] = tested on: Bacillus subtilis; test: Antibacterial activity against Bacillus subtilis at 500 ug/ml after 24 hrs by agar well diffusion method; details: read-out: DIZ
[30] = tested on: Rhizoctonia solani; test: Antifungal activity against Rhizoctonia solani after 72 hrs by agar well diffusion method
[31] = tested on: Aspergillus niger; test: Antifungal activity against Aspergillus niger at 300 ug/ml after 72 hrs by agar well diffusion method; details: read-out: DIZ
[32] = tested on: Fusarium oxysporum; test: Antifungal activity against Fusarium oxysporum at 500 ug/ml after 72 hrs by agar well diffusion method; details: read-out: DIZ
[33] = tested on: Fusarium oxysporum; test: Antifungal activity against Fusarium oxysporum at 100 ug/ml after 72 hrs by agar well diffusion method; details: read-out: DIZ
[34] = tested on: Aspergillus niger; test: Antifungal activity against Aspergillus niger at 50 ug/ml after 72 hrs by agar well diffusion method; details: read-out: DIZ
[35] = tested on: Aspergillus niger; test: Antifungal activity against Aspergillus niger after 72 hrs by agar well diffusion method
[36] = tested on: Rhizoctonia solani; test: Antifungal activity against Rhizoctonia solani at 100 ug/ml after 72 hrs by agar well diffusion method; details: read-out: DIZ
[37] = tested on: Bacillus subtilis; test: Antibacterial activity against Bacillus subtilis at 200 ug/ml after 24 hrs by agar well diffusion method; details: read-out: DIZ
[38] = tested on: Staphylococcus aureus; test: Antibacterial activity against Staphylococcus aureus ATCC 6538 at 100 ug/ml after 24 hrs by agar well diffusion method; details: ATCC 6538, 24 h, read-out: DIZ
[39] = tested on: Bacillus subtilis; test: Antibacterial activity against Bacillus subtilis at 100 ug/ml after 24 hrs by agar well diffusion method; details: read-out: DIZ
[40] = tested on: Rhizoctonia solani; test: Antifungal activity against Rhizoctonia solani at 50 ug/ml after 72 hrs by agar well diffusion method; details: read-out: DIZ
[41] = tested on: Aspergillus niger; test: Antifungal activity against Aspergillus niger at 200 ug/ml after 72 hrs by agar well diffusion method; details: read-out: DIZ
[42] = tested on: Staphylococcus aureus; test: Antibacterial activity against Staphylococcus aureus ATCC 6538 at 300 ug/ml after 24 hrs by agar well diffusion method; details: ATCC 6538, 24 h, read-out: DIZ
[43] = tested on: Klebsiella pneumoniae; test: Antibacterial activity against Klebsiella pneumoniae at 300 ug/ml after 24 hrs by agar well diffusion method; details: read-out: DIZ
[44] = tested on: Escherichia coli; test: Antibacterial activity against Escherichia coli ATCC 8739 at 500 ug/ml after 24 hrs by agar well diffusion method; details: ATCC 8739, 24 h, read-out: DIZ
[45] = tested on: Bacillus subtilis; test: Antibacterial activity against Bacillus subtilis at 50 ug/ml after 24 hrs by agar well diffusion method; details: read-out: DIZ
[46] = tested on: Aspergillus flavus; test: Antifungal activity against Aspergillus flavus at 500 ug/ml after 72 hrs by agar well diffusion method; details: read-out: DIZ
[47] = tested on: Aspergillus flavus; test: Antifungal activity against Aspergillus flavus after 72 hrs by agar well diffusion method
[48] = tested on: Staphylococcus aureus; test: Antibacterial activity against Staphylococcus aureus ATCC 6538 at 500 ug/ml after 24 hrs by agar well diffusion method; details: ATCC 6538, 24 h, read-out: DIZ

## CCn1cc(C=C2C(=O)OC(C)(C)OC2=O)c2cc([N+](=O)[O-])ccc21
[1]
  zone of inhibition at 100 µg/mL: 10 mm
[2]
  zone of inhibition at 300 µg/mL: 21 mm
[3]
  zone of inhibition at 200 µg/mL: 12 mm
[4]
  zone of inhibition at 300 µg/mL: 20 mm
[5]
  zone of inhibition at 50 µg/mL: 9 mm
[6]
  zone of inhibition at 500 µg/mL: 32 mm
[7]
  zone of inhibition at 50 µg/mL: 7 mm
[8]
  zone of inhibition at 50 µg/mL: 6 mm
[9]
  zone of inhibition at 200 µg/mL: 13 mm
[10]
  zone of inhibition at 200 µg/mL: 15 mm
[11]
  zone of inhibition at 300 µg/mL: 21 mm
[12]
  MIC: 25 µg/mL (≈ 72.6 µM)
[13]
  zone of inhibition at 500 µg/mL: 29 mm
[14]
  zone of inhibition at 200 µg/mL: 18 mm
[15]
  zone of inhibition at 300 µg/mL: 14 mm
[16]
  zone of inhibition at 100 µg/mL: 13 mm
[17]
  zone of inhibition at 300 µg/mL: 15 mm
[18]
  zone of inhibition at 100 µg/mL: 14 mm
[19]
  zone of inhibition at 50 µg/mL: 4 mm
[20]
  zone of inhibition at 200 µg/mL: 16 mm
[21]
  MIC: 30 µg/mL (≈ 87.1 µM)
[22]
  zone of inhibition at 100 µg/mL: 9 mm
[23]
  MIC: 35 µg/mL (≈ 102 µM)
[24]
  MIC: 15 µg/mL (≈ 43.6 µM)
[25]
  zone of inhibition at 200 µg/mL: 16 mm
[26]
  MIC: 15 µg/mL (≈ 43.6 µM)
[27]
  zone of inhibition at 500 µg/mL: 25 mm
[28]
  zone of inhibition at 50 µg/mL: 8 mm
[29]
  zone of inhibition at 500 µg/mL: 22 mm
[30]
  MIC: 35 µg/mL (≈ 102 µM)
[31]
  zone of inhibition at 300 µg/mL: 18 mm
[32]
  zone of inhibition at 500 µg/mL: 29 mm
[33]
  zone of inhibition at 100 µg/mL: 12 mm
[34]
  zone of inhibition at 50 µg/mL: 6 mm
[35]
  MIC: 40 µg/mL (≈ 116 µM)
[36]
  zone of inhibition at 100 µg/mL: 12 mm
[37]
  zone of inhibition at 200 µg/mL: 11 mm
[38]
  zone of inhibition at 100 µg/mL: 10 mm
[39]
  zone of inhibition at 100 µg/mL: 9 mm
[40]
  zone of inhibition at 50 µg/mL: 7 mm
[41]
  zone of inhibition at 200 µg/mL: 14 mm
[42]
  zone of inhibition at 300 µg/mL: 16 mm
[43]
  zone of inhibition at 300 µg/mL: 23 mm
[44]
  zone of inhibition at 500 µg/mL: 31 mm
[45]
  zone of inhibition at 50 µg/mL: 4 mm
[46]
  zone of inhibition at 500 µg/mL: 23 mm
[47]
  MIC: 40 µg/mL (≈ 116 µM)
[48]
  zone of inhibition at 500 µg/mL: 26 mm

## Cn1cc(C=C2C(=O)OC(C)(C)OC2=O)c2cc([N+](=O)[O-])ccc21
[1]
  zone of inhibition at 100 µg/mL: 10 mm
[2]
  zone of inhibition at 300 µg/mL: 21 mm
[3]
  zone of inhibition at 200 µg/mL: 12 mm
[4]
  zone of inhibition at 300 µg/mL: 20 mm
[5]
  zone of inhibition at 50 µg/mL: 9 mm
[6]
  zone of inhibition at 500 µg/mL: 31 mm
[7]
  zone of inhibition at 50 µg/mL: 7 mm
[8]
  zone of inhibition at 50 µg/mL: 6 mm
[9]
  zone of inhibition at 200 µg/mL: 14 mm
[10]
  zone of inhibition at 200 µg/mL: 16 mm
[11]
  zone of inhibition at 300 µg/mL: 21 mm
[12]
  MIC: 25 µg/mL (≈ 75.7 µM)
[13]
  zone of inhibition at 500 µg/mL: 29 mm
[14]
  zone of inhibition at 200 µg/mL: 18 mm
[15]
  zone of inhibition at 300 µg/mL: 15 mm
[16]
  zone of inhibition at 100 µg/mL: 13 mm
[17]
  zone of inhibition at 300 µg/mL: 15 mm
[18]
  zone of inhibition at 100 µg/mL: 14 mm
[19]
  zone of inhibition at 50 µg/mL: 4 mm
[20]
  zone of inhibition at 200 µg/mL: 16 mm
[21]
  MIC: 30 µg/mL (≈ 90.8 µM)
[22]
  zone of inhibition at 100 µg/mL: 9 mm
[23]
  MIC: 35 µg/mL (≈ 106 µM)
[24]
  MIC: 15 µg/mL (≈ 45.4 µM)
[25]
  zone of inhibition at 200 µg/mL: 16 mm
[26]
  MIC: 15 µg/mL (≈ 45.4 µM)
[27]
  zone of inhibition at 500 µg/mL: 25 mm
[28]
  zone of inhibition at 50 µg/mL: 8 mm
[29]
  zone of inhibition at 500 µg/mL: 23 mm
[30]
  MIC: 35 µg/mL (≈ 106 µM)
[31]
  zone of inhibition at 300 µg/mL: 18 mm
[32]
  zone of inhibition at 500 µg/mL: 29 mm
[33]
  zone of inhibition at 100 µg/mL: 12 mm
[34]
  zone of inhibition at 50 µg/mL: 6 mm
[35]
  MIC: 40 µg/mL (≈ 121 µM)
[36]
  zone of inhibition at 100 µg/mL: 12 mm
[37]
  zone of inhibition at 200 µg/mL: 12 mm
[38]
  zone of inhibition at 100 µg/mL: 10 mm
[39]
  zone of inhibition at 100 µg/mL: 9 mm
[40]
  zone of inhibition at 50 µg/mL: 7 mm
[41]
  zone of inhibition at 200 µg/mL: 14 mm
[42]
  zone of inhibition at 300 µg/mL: 18 mm
[43]
  zone of inhibition at 300 µg/mL: 23 mm
[44]
  zone of inhibition at 500 µg/mL: 30 mm
[45]
  zone of inhibition at 50 µg/mL: 4 mm
[46]
  zone of inhibition at 500 µg/mL: 23 mm
[47]
  MIC: 40 µg/mL (≈ 121 µM)
[48]
  zone of inhibition at 500 µg/mL: 25 mm
